Data on eight compounds can be found in US11319321B2, “[1,2,4]triazolo[1,5-a]pyrimidine compounds as PDE2 inhibitors” (Janssen Pharmaceutica NV, priority 2016, dated 2022).

By melting point is commonly meant the temperature, or range, at which the solid turns liquid. In general, Emax refers to the maximal effect, on the per cent scale that the assay sets.

Like-named read-outs stand apart in the source and are kept apart here.

For one data set, the system named is hPDE3B. The data set is described as follows: In vitro assay PDE3 (SPA, 3H-cAMP). The data set is classed as biochemical, human. The following applies: 0.4 μM cAMP substrate; for hPDE3B Emax: in % (unit assumed).
In data set [1] the target is T1, Human recombinant PDE2A (hPDE2A) (Homo sapiens, UniProt O00408).
T1 construct: made in house; host or cells: Sf9 insect cells (baculovirus)
The data set is described as follows: In vitro assay PDE2A (SPA, 3H-cGMP). The data set is classed as biochemical. The following applies: for Emax: 10 μM cGMP substrate. In a few lines: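 Sf9-expressed, Ni-sepharose-purified enzyme in 50 mM Tris pH 7.8, 8.3 mM MgCl2, 1.7 mM EGTA with 10 μM cGMP plus 0.01 μCi 3H-cGMP (final), 1% DMSO. Reaction 45 min at room temperature; SPA bead radioactivity counted as cpm, blanks without enzyme, controls with DMSO instead of compound.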

The target of another data set is hPDE10A2 (Homo sapiens, UniProt Q9Y233). Nature of the data set: biochemical. As to conditions: 60 nM cAMP substrate; for IC50: human clone, read-out: hPDE10A2 or rPDE10A2 pIC50 (converted); for Emax: read-out: hPDE10A2 or rPDE10A2 Emax, human clone. In a few lines:
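His-purified rat or human PDE10A2 from baculovirus-infected Sf9 cells was incubated with compound in 50 mM Tris pH 7.8, 8.3 mM MgCl2, 1.7 mM EGTA plus 60 nM cAMP and […] 3H-cAMP, 60 min at room temperature. Product captured by SPA beads; IC50 fitted from % control (1% DMSO) minus enzyme-free blank.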

A further data set addresses T2, PDE2A (Rattus norvegicus, UniProt Q01062).
T2 construct: Twenty μm-thick striatal sections were cut; from tissue; host or cells: rat brain, striatal sections
T2 sequence (Q01062 1-928): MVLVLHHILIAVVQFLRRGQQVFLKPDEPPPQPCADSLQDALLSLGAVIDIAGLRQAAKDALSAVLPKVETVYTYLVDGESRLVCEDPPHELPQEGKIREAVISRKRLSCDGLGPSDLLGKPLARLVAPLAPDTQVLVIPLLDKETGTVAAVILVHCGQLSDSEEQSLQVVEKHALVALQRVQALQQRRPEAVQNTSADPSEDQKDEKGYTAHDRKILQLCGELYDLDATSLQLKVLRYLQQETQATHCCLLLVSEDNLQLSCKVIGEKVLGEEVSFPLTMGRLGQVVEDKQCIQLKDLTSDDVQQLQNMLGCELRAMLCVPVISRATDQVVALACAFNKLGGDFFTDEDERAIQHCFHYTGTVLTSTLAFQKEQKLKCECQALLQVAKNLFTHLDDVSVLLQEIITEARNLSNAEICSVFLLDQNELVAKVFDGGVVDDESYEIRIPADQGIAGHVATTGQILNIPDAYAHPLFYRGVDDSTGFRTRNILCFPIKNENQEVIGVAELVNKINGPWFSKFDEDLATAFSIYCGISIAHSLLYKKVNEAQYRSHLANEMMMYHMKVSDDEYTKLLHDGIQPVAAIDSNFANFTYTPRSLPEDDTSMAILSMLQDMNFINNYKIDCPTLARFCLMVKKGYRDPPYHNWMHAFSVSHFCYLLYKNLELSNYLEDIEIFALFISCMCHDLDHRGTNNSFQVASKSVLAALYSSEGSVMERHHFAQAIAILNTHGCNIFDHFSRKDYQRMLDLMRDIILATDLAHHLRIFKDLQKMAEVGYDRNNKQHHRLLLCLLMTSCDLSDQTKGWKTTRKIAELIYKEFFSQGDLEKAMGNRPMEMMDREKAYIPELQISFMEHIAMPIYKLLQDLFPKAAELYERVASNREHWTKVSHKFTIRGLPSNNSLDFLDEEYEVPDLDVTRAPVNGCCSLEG
Nature of the data set: PDE2 occupancy by ex-vivo autoradiography with [3H]B-17a. The data set is classed as in vivo. The following applies: read-out: PDE2 occupancy at 10 mg/kg. The method, then:
Brains were immediately removed from the skull and rapidly frozen in dry-ice cooled 2-methylbutane (−40° C.).
After thawing, sections were dried under a cold stream of air and incubated for one minute with 30 nM [^3H]B-17a in Tris-HCl (50 mM, pH7.4) containing 0.3% BSA. Brain sections from drug-treated and vehicle-treated animals were incubated in parallel. […] After incubation, the excess of [^3H]B-17a was washed off in ice-cold buffer 2 times 10 minutes, followed by a quick dip in distilled water. The sections were then dried under a stream of cold air.
Brain sections were loaded in a […] (Biospace, Paris) for 4 h and radioactivity emerging from delineated brain area was quantified using the Beta vision program (Biospace, Paris). Specific binding was determined as the difference between total binding in the striatum and non-specific binding in the cerebellum. Percentage receptor occupancy of the drug administered to the animal corresponded to 100% minus the percentage receptor labeled in the treated animal. For the determination of ED50-values, the percentage of receptor occupancy was plotted against dose and the sigmoidal log dose-effect curve of best fit was calculated by non-linear regression analysis, using the GraphPad Prism program.

The next data set has as its target T3, rPDE10A2 (Rattus norvegicus, UniProt Q9QYJ6).
T3 construct: made in house; host or cells: Sf9 insect cells (baculovirus)
T3 sequence (Q9QYJ6 1-794): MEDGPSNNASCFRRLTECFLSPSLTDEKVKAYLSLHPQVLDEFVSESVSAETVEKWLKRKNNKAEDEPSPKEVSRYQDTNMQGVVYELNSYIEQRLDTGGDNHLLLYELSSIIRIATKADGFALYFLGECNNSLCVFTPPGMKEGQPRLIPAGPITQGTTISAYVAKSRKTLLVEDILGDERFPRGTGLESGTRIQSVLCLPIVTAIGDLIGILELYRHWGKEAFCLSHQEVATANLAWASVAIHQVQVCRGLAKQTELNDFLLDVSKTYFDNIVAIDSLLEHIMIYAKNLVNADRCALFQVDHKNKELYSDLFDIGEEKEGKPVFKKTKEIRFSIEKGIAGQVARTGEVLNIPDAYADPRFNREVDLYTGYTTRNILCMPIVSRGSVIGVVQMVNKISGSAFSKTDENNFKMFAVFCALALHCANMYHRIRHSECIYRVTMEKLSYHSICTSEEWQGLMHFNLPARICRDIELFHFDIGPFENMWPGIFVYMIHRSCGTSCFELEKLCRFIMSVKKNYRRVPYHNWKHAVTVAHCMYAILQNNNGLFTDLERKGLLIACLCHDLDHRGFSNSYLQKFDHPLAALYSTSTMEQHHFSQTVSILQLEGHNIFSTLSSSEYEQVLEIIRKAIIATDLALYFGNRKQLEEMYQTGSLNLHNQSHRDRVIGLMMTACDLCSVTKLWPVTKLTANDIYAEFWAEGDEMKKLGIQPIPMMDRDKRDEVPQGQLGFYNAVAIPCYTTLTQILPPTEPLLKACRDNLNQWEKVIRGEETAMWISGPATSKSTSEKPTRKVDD
The data set is described as follows: In vitro assay PDE10A, rat clone (SPA, 3H-cAMP). The data set is classed as biochemical. As to conditions: for IC50: rat clone (r), 60 nM cAMP substrate, read-out: hPDE10A2 or rPDE10A2 pIC50 (converted); for Emax: read-out: hPDE10A2 or rPDE10A2 Emax. The method, then: Rat recombinant PDE10A (rPDE10A2) was expressed in Sf9 cells using a recombinant rPDE10A baculovirus construct. Cells were harvested after 48 h of infection and the rPDE10A protein was purified by metal chelate chromatography on Ni-sepharose 6FF. Tested compounds were dissolved and diluted in 100% DMSO to a concentration 100 fold of the final concentration in the assay. Human recombinant PDE10A ([…]) was expressed in Sf9 cells using a recombinant hPDE10A baculovirus that was made and amplified in house. Cells were harvested after 72 h of infection and the hPDE10A protein was purified by metal chelate chromatography on Ni-sepharose. Compound dilutions (0.4 μl) were added in 384 well plates to 20 μl of incubation buffer (50 mM Tris pH 7.8, 8.3 mM MgCl2, 1.7 mM EGTA). 10 μl of rPDE10A or hPDE10A enzyme in incubation buffer was added and the reaction was started by addition of 10 μl substrate to a final concentration of 60 nM cAMP and […] ^3H-cAMP. The reaction was incubated for 60 minutes at room temperature. After incubation, the reaction was stopped with 20 μl of stop solution consisting of 17.8 mg/ml PDE SPA (scintillation proximity assay) beads. After sedimentation of the beads during 30 minutes the radioactivity was measured in a Perkin Elmer Topcount scintillation counter and results were expressed as cpm. For blanc values the enzyme was omitted from the reaction and replaced by incubation buffer. Control values were obtained by addition of a final concentration of 1% DMSO instead of compound. A best fit curve is fitted by a minimum sum of squares method to the plot of % of control value substracted with blanc value versus compound concentration and the half maximal inhibitory concentration (IC50) value is derived from this curve.

[2] abbreviates: hPDE2A pIC50, 10 μM cGMP substrate.
[3] abbreviates: male Wistar rats, 10 mg/kg SC (subcutaneous), striatum, percentage occupancy.

T1 sequence (O00408 whole entry): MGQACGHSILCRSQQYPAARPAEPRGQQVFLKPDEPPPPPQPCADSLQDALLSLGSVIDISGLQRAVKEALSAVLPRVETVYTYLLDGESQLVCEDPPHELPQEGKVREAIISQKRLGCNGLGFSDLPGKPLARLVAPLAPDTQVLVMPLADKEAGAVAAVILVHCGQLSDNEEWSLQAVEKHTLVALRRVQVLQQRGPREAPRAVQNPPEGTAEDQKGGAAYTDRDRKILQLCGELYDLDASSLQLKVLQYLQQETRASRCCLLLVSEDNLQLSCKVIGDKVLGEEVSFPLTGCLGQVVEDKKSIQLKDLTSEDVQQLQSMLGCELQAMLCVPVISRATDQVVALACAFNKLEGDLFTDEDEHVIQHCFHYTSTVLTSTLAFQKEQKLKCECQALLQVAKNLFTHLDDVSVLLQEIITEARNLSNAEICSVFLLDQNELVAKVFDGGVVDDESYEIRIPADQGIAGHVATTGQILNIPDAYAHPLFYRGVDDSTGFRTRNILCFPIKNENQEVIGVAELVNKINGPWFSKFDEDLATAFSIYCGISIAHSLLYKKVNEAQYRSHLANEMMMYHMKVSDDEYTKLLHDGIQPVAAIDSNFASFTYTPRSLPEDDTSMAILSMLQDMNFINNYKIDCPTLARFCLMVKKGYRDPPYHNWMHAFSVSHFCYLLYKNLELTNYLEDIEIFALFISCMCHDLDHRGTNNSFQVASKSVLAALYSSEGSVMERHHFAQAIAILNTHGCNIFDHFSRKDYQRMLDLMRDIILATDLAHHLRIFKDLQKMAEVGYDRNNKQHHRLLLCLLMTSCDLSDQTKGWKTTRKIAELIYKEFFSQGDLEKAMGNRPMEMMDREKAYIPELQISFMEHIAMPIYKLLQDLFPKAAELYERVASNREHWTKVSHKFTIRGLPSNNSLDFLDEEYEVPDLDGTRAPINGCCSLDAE
Sequence of hPDE10A2 (Q9Y233 267-1055): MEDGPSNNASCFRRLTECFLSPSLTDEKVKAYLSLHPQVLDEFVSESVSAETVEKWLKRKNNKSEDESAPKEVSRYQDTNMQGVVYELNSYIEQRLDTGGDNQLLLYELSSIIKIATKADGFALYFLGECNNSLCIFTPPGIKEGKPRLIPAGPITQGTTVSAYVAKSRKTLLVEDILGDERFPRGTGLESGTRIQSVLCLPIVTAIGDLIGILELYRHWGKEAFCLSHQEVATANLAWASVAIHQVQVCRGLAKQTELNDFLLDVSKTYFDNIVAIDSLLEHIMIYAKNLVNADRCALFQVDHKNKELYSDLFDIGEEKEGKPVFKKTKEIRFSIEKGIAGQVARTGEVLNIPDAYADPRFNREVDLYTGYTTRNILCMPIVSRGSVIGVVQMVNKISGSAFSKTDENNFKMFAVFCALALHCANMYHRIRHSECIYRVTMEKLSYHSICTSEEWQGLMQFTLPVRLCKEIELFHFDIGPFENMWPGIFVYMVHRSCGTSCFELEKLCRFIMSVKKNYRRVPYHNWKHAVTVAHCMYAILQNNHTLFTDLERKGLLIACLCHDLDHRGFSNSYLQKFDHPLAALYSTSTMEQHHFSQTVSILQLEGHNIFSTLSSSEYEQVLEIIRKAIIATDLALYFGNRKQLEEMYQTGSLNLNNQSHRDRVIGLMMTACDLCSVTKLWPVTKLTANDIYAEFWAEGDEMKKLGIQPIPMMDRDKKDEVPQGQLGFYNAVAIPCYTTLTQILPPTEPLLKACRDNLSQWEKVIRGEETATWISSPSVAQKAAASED

Consider `Cc1cc(C(C)N2CC[C@@H](C)[C@H](c3cc(C(F)F)nc4ncnn34)C2)cc(C)n1` (single isomer, unassigned) [Compound 1a, 5-(difluoromethyl)-7-[(3 S,4R)-1-[(1R*)-1-(2,6-dimethyl-4-pyridyl)ethyl]-4-methyl-3-piperidyl]-[1,2,4]triazolo[1,5-a]pyrimidine], for which the melting point was 141.46 °C. Also, in the data set on hPDE3B, the “hPDE3B pIC50” value is below 5 and the “hPDE3B Emax” value is recorded as 34. Besides, in data set [1], the Emax was 99%. The IC50 in data set [1] (setting [2]) is 0.102 µM. Further, at hPDE10A2, the IC50 was 5.62 µM and the Emax amounted to 64%.

Regarding `C[C@@H]1CCN(Cc2cc3ccccc3cn2)C[C@H]1c1cc(C(F)F)nc2ncnn12` [Compound 8], in the data set with hPDE3B, the “hPDE3B pIC50” value is 5.09 and the “hPDE3B Emax” value came out at 61. On PDE2A (setting [3]), the receptor occupancy at 10 mg/kg is 0%. Further, in data set [1], the maximal effect (Emax) amounted to 100%. Besides, in data set [1] (setting [2]), the IC50 is 0.00851 µM. For the same compound, at hPDE10A2, the IC50 was 1.48 µM and the Emax was found to be 85%.

In turn, `C[C@@H]1CCN(Cc2cccc(N3CCCCC3)n2)C[C@H]1c1cc(C(F)F)nc2ncnn12` [Compound 17] had a melting point of 137.52 °C. Further, in the data set with hPDE3B, the “hPDE3B pIC50” value is reported as below 5 and the “hPDE3B Emax” value came out at 41. Further, the Emax in data set [1] was determined as 100%. In addition, the IC50 in data set [1] (setting [2]) was 0.195 µM. Further, on hPDE10A2, the IC50 is above 10 µM and the Emax stood at 49%.

As for `Cc1cc(CN2CCCC(C)(c3cc(C(F)F)nc4ncnn34)C2)cc(Cl)n1` (centres unmarked) [Compound 28], in the data set on hPDE3B, the “hPDE3B pIC50” value is below 5 and the “hPDE3B Emax” value is 10. For the same compound, in data set [1], the IC50 is 5.62 µM and the maximum response (Emax) is 16%. In addition, on rPDE10A2, the IC50 was above 10 µM and the Emax was 7.2%.

As to `Cc1cc(CN2CC[C@@H](C)[C@H](c3cc(C(F)F)nc4ncnn34)C2)cc(C)n1.Cl` [Compound 33], in the data set on hPDE3B, the “hPDE3B pIC50” value is below 5 and the “hPDE3B Emax” value was 8. In addition, the receptor occupancy at 10 mg/kg on PDE2A (setting [3]) was 37%. Moreover, in data set [1], the IC50 is 0.0224 µM and the Emax was determined as 96%. In addition, on hPDE10A2, the IC50 was 4.07 µM and the Emax was found to be 72%.

For the compound `C[C@@H]1CCN(Cc2ccc3nccn3c2)C[C@H]1c1cc(C(F)F)nc2ncnn12` [Compound 34], in the data set with hPDE3B, the “hPDE3B pIC50” value is given as below 5 and the “hPDE3B Emax” value is reported as 18. Besides, at PDE2A (po), the receptor occupancy at 10 mg/kg was 0%. For the same compound, in data set [1], the IC50 is 0.0229 µM and the maximal effect (Emax) is 91%. Besides, at hPDE10A2, the IC50 was 4.68 µM and the maximal response (Emax) was found to be 67%.

As for `Cc1cc(CN2CC[C@@H](C)[C@H](c3cc(C(F)F)nc4ncnn34)C2)cc(C)c1Cl.Cl` [Compound 36], the “hPDE3B Emax” value in the data set on hPDE3B was found to be 43. Further, the receptor occupancy at 10 mg/kg at PDE2A (po) came to 0%. Further, in data set [1], the IC50 was 0.0562 µM and the maximum response (Emax) was found to be 100%. Moreover, at hPDE10A2, the IC50 was 3.72 µM and the Emax worked out at 82%.

On to `FC(F)c1cc(C2CCCN(Cc3cc4ccccc4o3)C2)n2ncnc2n1` (centres unmarked) [Compound 37], for which, in the data set with hPDE3B, the “hPDE3B pIC50” value is listed as 5.92 and the “hPDE3B Emax” value is listed as 88. Moreover, the Emax in data set [1] turned out to be 81%. Moreover, the IC50 in data set [1] (setting [2]) is 0.2 µM. Further, on rPDE10A2, the IC50 was 1.05 µM and the Emax was 50.7%.
